Source: US20070161634A1, “Compounds as CCR5 antagonists” (priority 2004, published 2007)
Like-named read-outs stand apart in the source and are kept apart here.

Assays:
[1] = target: CCR5 receptor (Homo sapiens, UniProt P51681); test: [35S]GTPγS binding assay; format: biochemical
Excerpt: [^35S]GTPγS binding assay
CCR5 receptor binds to agonists and changes its conformation which enables it to interact with and activate G protein, a heterotrimer which consists of subunits α and βγ. The capability of G protein α subunit binding to GTP depends on the effect between CCR5 and the agonists, therefore, the amount of α subunit bound GTP should reflect the agonists activity on the CCR5 receptor. In the GTPγS binding assay, [^35S]GTPγS is resistant to the GTPase activity of α subunit, and thus cannot be hydrolyzed when bound to G protein, making it accurate to reflect the receptor activation. Radiolabled [^35S]GTPγS can also serve as marker for detection in place of GTP. When CCR5 is not activated, α subunit is bound to GDP, but when CCR5 is activated, α subunit binds to [^35S]GTPγS, therefore, measurement of the number of the α subunit-bound ^35S-GTPγS can reflect the CCR5 activation level.
CCR5 activation of G-protein was measured according to assays below:
Permanent cell line expressing CHO of CCR5 (available at Euroscreen S.A., Belgium) was lysed by lysis buffer (5 mM Tris HCl, pH 7.5, 5 mM EDTA and 5 mM EGTA), and centrifuged at 15,000×g for 10 min. Cell membrane was resuspended with reaction buffer (5 mM Tris HCl, pH 7.5, 5 mM MgCl2, 1 mM EGTA, 100 mM NaCl), and protein concentrations were determined using Bioford assay (Bio-rad). [^35S]GTPγS binding assay was performed in the 100 μl reaction buffer system, which contains 10 ug membrane protein, 40 uM GDP and 0.5 nM [^35S]GTPγS (1200 Ci/mmol). After adding the study compounds, the system was vortexed and placed on ice for 5 min, and then CCR5 agonist was added (10 nM RANTES or 30 nM MIP1β). After vortexing, the reaction tubes were incubated at 30° C. for 1 h. After the reaction was complete, the reaction tubes were placed on ice and diluted with PBS to terminate the reaction. After suction through the GF/C filter membrane under vacuum, the membrane bound radioactivity was measured with a scintillation counter. Basal binding was measured without presence of agonist, and non-specific binding was measured in the presence of 10 mM nonisotopical GTPγS. The binding ratio of [^35S]GTPγS was calculated according to 100×[c.p.m.sample−c.p.m. non-specific]/[c.p.m.basal−c.p.m. non-specific]. IC50 was the compound concentration at which half of the [^35S]GTPγS binding induced by 10 nM RANTES or 30 nM MIP1β was inhibited, and the value was obtained from the concentration-inhibition curve (6-7 points for concentrations of each compound).

[2] = target: CXCR4 (Homo sapiens, UniProt P61073); test: effects on the activation of CXCR4 receptor; conditions: at the concentration of 10,000 nM
Sequence of CXCR4 (P61073 whole entry, species assumed): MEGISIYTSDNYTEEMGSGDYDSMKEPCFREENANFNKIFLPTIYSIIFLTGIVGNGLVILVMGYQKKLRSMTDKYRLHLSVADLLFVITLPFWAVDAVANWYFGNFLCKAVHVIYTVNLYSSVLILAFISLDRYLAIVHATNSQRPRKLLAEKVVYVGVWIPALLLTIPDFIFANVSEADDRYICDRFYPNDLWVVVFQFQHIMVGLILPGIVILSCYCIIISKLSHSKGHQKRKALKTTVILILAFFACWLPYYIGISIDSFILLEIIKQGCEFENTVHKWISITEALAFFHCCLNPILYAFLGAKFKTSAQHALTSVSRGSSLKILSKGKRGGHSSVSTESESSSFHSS

[3] = target: T1, CCR1 (Homo sapiens, UniProt P32246); test: effects on the activation of CCR1 receptor; conditions: at the concentration of 10,000 nM
T1 sequence (P32246 1-355): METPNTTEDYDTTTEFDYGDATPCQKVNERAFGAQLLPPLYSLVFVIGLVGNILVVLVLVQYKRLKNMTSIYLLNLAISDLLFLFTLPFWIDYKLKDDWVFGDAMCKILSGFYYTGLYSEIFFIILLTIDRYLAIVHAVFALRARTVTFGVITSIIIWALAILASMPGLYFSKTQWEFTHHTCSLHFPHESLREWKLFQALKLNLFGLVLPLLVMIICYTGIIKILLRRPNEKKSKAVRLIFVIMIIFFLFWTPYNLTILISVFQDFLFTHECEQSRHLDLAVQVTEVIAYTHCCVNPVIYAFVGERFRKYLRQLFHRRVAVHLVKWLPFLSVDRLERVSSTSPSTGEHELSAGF

[4] = test system: peripheral blood monouclear cells (PBMC), Jurket; test: MTT cytotoxicity assay; format: cell-based; conditions: at 10,000 nM
Description: (§1) C. MTT Cytotoxicity Assay
(§2) Cells were prepared as single cell suspension, and cell densities were adjusted according to the cell size and cell features. Cells were inoculated with 100 ul culture media into 96 well plates, and incubated in 37° C. incubator (5% CO2, saturated humidity). The seeding densities were as follows: peripheral blood monouclear cells (PBMC) 10^5 cells /well, Jurket 4×10^4 cells/well. 24 h after cell inoculation, the compounds to be tested were added and incubated with cells. 48 h after inoculation, 10 μl MTT (Sigma, USA, 5 mg/ml, diluted with PBS and stored at −20° C.) was added to each well, and incubated for another 4 h in 37° C. incubator. Then add 50 μl formazane solvent (10%SDS-5%isopropanol−0.01M HCl) and incubate overnight. Determine OD570/OD630 nm at spectrophotometer, and calculate CC50 according to the inhibition curve.

[5] = MTT cytotoxicity assay; format: cell-based; conditions: human, peripheral blood mononuclear cells (PBMC) and Jurkat cells; MTT
Description: as §1, §2

[6] = Table I, [35S]GTPγS binding, read-out: IC50
[7] = [35S]GTPγS binding initiated by 10 nM RANTES, read-out: IC50(nM) ± S.E.
[8] = Table I, class symbols, inhibition at 10,000 nM, read-out: IC50
[9] = [35S]GTPγS binding initiated by 10 nM RANTES, class symbols, inhibition at 10,000 nM, read-out: IC50(nM) ± S.E.

Sequence of CCR5 receptor (P51681 whole entry): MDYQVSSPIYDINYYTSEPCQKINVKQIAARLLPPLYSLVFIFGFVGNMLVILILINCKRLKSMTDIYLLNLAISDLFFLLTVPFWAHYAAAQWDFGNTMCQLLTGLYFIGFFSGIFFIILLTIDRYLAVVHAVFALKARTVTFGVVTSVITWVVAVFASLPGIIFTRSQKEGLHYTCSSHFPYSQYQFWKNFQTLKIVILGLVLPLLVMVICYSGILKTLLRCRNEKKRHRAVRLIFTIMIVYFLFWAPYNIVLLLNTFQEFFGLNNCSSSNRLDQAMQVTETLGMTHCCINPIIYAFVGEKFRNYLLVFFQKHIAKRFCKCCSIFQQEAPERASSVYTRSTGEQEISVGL

IC50 [1, 6]	IC50 [1, 7]	SMILES	also measured
~10000 nM	~10000 nM	OC1(c2ccc3c(c2)OCO3)CN(Cc2ccccc2)CC1CN1CCC(c2ccccc2)CC1 (centres unmarked) [I-a-a, 1-benzyl-3-(benzo[1,3]dioxol-5-yl)-4-[(4-phenylpiperidin-1-yl)methyl]pyrrolidin-3-ol]	–
1160 ± 224 nM	1160 ± 224 nM	O=C(c1ccccc1I)N1CC(CN2CCC(c3ccccc3)CC2)C(O)(c2ccccc2)C1 (centres unmarked) [I-b-c, (3-hydroxy-3-phenyl-4-[(4-phenylpiperidin-1-yl)methyl]pyrrolidin-1-yl)(2-iodophenyl) methanone]	–
408 ± 10.5 nM	408 ± 10.5 nM	OC1(c2ccccc2)CN(Cc2ccccc2)CC1CN1CCC(CCCc2ccccc2)CC1 (centres unmarked) [I-b-g, 1-benzyl-3-phenyl-4-{[4-(3-phenylpropyl)piperidin-1-yl]methyl}pyrrolidin-3-ol]	–
368 ± 52 nM	368 ± 52 nM	OC1(CCCc2ccccc2)CCN(CC2CN(Cc3ccccc3)CC2(O)c2ccccc2)CC1 (centres unmarked) [I-b-h, 1-[(1-benzyl-4-hydroxy-4-phenylpyrrolidin-3-yl)methyl]-4-(3-phenylpropyl)piperidin-4-ol]	–
2510 nM	2510 nM	OC1(CCCc2ccccc2)CCN(CC2CN(Cc3ccccc3)CC2(O)c2ccc(F)cc2)CC1 (centres unmarked) [I-b-k, 1-{[1-benzyl-4-(4-fluorophenyl)-4-hydroxypyrrolidin-3-yl]methyl}-4-(3-phenylpropyl)piper idin-4-ol]	–
565 ± 64.5 nM	565 ± 64.5 nM	CCN(C(=O)OCc1ccccc1)C1CCN(CC2CN(Cc3ccccc3)CC2(O)c2ccc(F)cc2)CC1 (centres unmarked) [II-a-b, Benzyl 1-[(1-benzyl-4-(4-fluorophenyl)-4-hydroxypyrrolidin-3-yl)methyl]piperidin-4-yl (ethyl)carbamate]	–
8.75 nM	8.75 nM	C=CCN(C(=O)OCc1ccccc1)C1CCN(CC2CN(C(=O)C3CCCC3)CC2(O)c2ccccc2)CC1 (centres unmarked) [III-a-h, benzyl allyl(1-((1-(cyclo-pentanecarbonyl)-4-hydroxy-4-phenylpyrrolidin-3-yl)methyl)piperi-din-4-yl) carbamate]	–
13.6 nM	13.6 nM	C=CCN(C(=O)COc1ccccc1)C1CCN(CC2CN(C(=O)C3CCCC3)CC2(O)c2ccccc2)CC1 (centres unmarked) [III-a-l, N-allyl-N-(1-((1-(cyclopen-tanecarbonyl)-4-hydroxy-4-phenylpyrrolidin-3-yl)methyl)piperi-din-4-yl)-3-phenoxy acetamide]	–

The next lines start with the molecule.

SMILES	IC50 [1, 6]	IC50 [1, 7]	also measured
O=C(c1ccccc1)N1CC(CN2CCC(c3ccccc3)CC2)C(O)(c2ccccc2)C1 (centres unmarked) [I-b-b, (3-hydroxy-3-phenyl-4-[(4-phenylpiperidin-1-yl)methyl]pyrrolidin-1-yl)(phenyl)methanone]	2860 ± 860 nM	2860 ± 60 nM	–
O=S(=O)(c1ccccc1)N1CC(CN2CCC(c3ccccc3)CC2)C(O)(c2ccccc2)C1 (centres unmarked) [I-b-d, 3-phenyl-4-[(4-phenylpiperidin-1-yl)methyl]-1-(phenylsulfonyl)pyrrolidin-3-ol]	–	–	IC50 [1, 8]: > 10000 nM; IC50 [1, 9]: > 10000 nM
O=C(C1CCCC1)N1CC(CN2CCC(c3ccccc3)CC2)C(O)(c2ccccc2)C1 (centres unmarked) [I-b-e, Cyclopentyl-(3-hydroxy-3-phenyl-4-[(4-phenylpiperidin-1-yl)methyl]pyrrolidin-1-yl)metha none]	1890 ± 615 nM	1890 ± 615 nM	–
OC1(c2ccc(F)cc2)CN(Cc2ccccc2)CC1CN1CCC(c2ccccc2)CC1 (centres unmarked) [I-b-j, 1-benzyl-3-(4-fluorophenyl)-4-((4-phenylpiperidin-1-yl)methyl)pyrrolidin-3-ol]	–	–	IC50 [1, 8]: > 10000 nM; IC50 [1, 9]: > 10000 nM
CCN(C(=O)OCc1ccccc1)C1CCN(CC2CN(Cc3ccccc3)CC2(O)c2ccccc2)CC1 (centres unmarked) [II-a-a, Benzyl 1-[(1-benzyl-4-hydroxy-4-phenylpyrrolidin-3-yl)methyl]piperidin-4-yl (ethyl)carbamate]	401 ± 87.5 nM	401 ± 87.5 nM	activation or antagonism of CXCR4 receptor [2]: do not activate or antagonize; activation or antagonism of CCR1 receptor [3]: do not activate or antagonize; cytotoxicity on cells [4]: no significant cytotoxicity; CC50 at 24 h [5]: ~30000 nM
CCN(C(=O)OCc1ccccc1)C1CCN(CC2CN(Cc3ccccc3)CC2(C)O)CC1 (centres unmarked) [II-a-c]	–	–	IC50 [1, 8]: > 10000 nM; IC50 [1, 9]: > 10000 nM
C=CCN(C(=O)OCc1ccc([N+](=O)[O-])cc1)C1CCN(CC2CN(Cc3ccccc3)CC2(O)c2ccccc2)CC1 (centres unmarked) [III-a-a, 4-nitrobenzyl allyl(1-((1-benzyl-4-hydroxy-4-phenylpyrrolidin-3-yl)methyl)piperidin-4-yl) carbamate]	~10000 nM	~10000 nM	activation or antagonism of CXCR4 receptor [2]: do not activate or antagonize; activation or antagonism of CCR1 receptor [3]: do not activate or antagonize
C=CCN(C(=O)OCc1ccc([N+](=O)[O-])cc1)C1CCN(CC2CN(C(=O)c3ccccc3)CC2(O)c2ccccc2)CC1 (centres unmarked) [III-a-b, 4-nitrobenzyl allyl(1-((1-benzoyl-4-hydroxy-4-phenylpyrrolidin-3-yl)methyl)piperidin-4-yl) carbamate]	9.7 ± 0.7 nM	9.7 ± 0.7 nM	activation or antagonism of CXCR4 receptor [2]: do not activate or antagonize; activation or antagonism of CCR1 receptor [3]: do not activate or antagonize; cytotoxicity on cells [4]: no significant cytotoxicity; CC50 at 24 h [5]: ~30000 nM
C=CCN(C(=O)OCc1ccc(OC)cc1)C1CCN(CC2CN(C(=O)C3CCCC3)CC2(O)c2ccccc2)CC1 (centres unmarked) [III-a-i, 4-methoxybenzyl allyl(1-((1-(cyclo-pentanecarbonyl)-4-hydroxy-4-phenylpyrrolidin-3-yl)methyl)piperi-din-4-yl) carbamate]	4.33 nM	4.33 nM	–
C=CCN(C(=O)OCc1ccc(Br)cc1)C1CCN(CC2CN(C(=O)C3CCCC3)CC2(O)c2ccccc2)CC1 (centres unmarked) [III-a-j, 4-bromobenzyl allyl(1-((1-cyclo-pentanecar-bonyl)-4-hydroxy-4-phenylpyrrolidin-3-yl)methyl) piperidin-4-yl) carbamate]	8.87 nM	8.87 nM	–
C=CCN(C(=O)Nc1ccccc1)C1CCN(CC2CN(C(=O)C3CCCC3)CC2(O)c2ccccc2)CC1 (centres unmarked) [III-a-k, 1-allyl-1-(1-((1-(cyclopentane-carbonyl)-4-hydroxy-4-phenylpyrrolidin-3-yl)methyl)piperidin-4-yl)-3-phenylurea]	6.46 nM	6.46 nM	–
C[C@H]1[C@@H](CN2CCC(c3ccccc3)CC2)C(O)(c2ccccc2)CN1Cc1ccccc1 (some centres unmarked) [IV-a-a, 1-benzyl-5-methyl-3-phenyl-4-[(4-phenylpiperi-din-1-yl)methyl]py-rrolidin-3-ol]	–	–	IC50 [1, 8]: > 10000 nM; IC50 [1, 9]: > 10000 nM
